Tests used:
Assay in all cases: Post-emergence efficacy, glasshouse
Type in all cases: in vivo
[1] = test system: Chenopodium album (CHEAL); conditions: Chenopodium album, post-emergence, 312 h, evaluated after 13 days, 100=total damage to plant, 0=no damage to plant, read-out: Control of weed species after post-emergence application, CHEAL; for pest or weed control at 1000 g/ha: Application Rate 1000 g/Ha
How it was run: (§1)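 Plants grown 14 days in glasshouse (24/16° C, 14 h light, 65% humidity), then sprayed post-emergence with active ingredient in IF50 solvent/emulsifier mix, diluted in 0.25% or 1% Empicol ESC70 + 1% ammonium sulphate. Damage scored 13 days later, 0–100 (100 = total damage).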

[2] = test system: Eleusine indica (ELEIN); conditions: Eleusine indica, post-emergence, 312 h, evaluated after 13 days, 100=total damage to plant, 0=no damage to plant, read-out: Control of weed species after post-emergence application, ELEIN; for pest or weed control at 1000 g/ha: Application Rate 1000 g/Ha
How it was run: as §1

[3] = test system: Lolium perenne (LOLPE); conditions: Lolium perenne, post-emergence, 312 h, evaluated after 13 days, 100=total damage to plant, 0=no damage to plant, read-out: Control of weed species after post-emergence application, LOLPE; for pest or weed control at 1000 g/ha: Application Rate 1000 g/Ha
How it was run: as §1

[4] = test system: Setaria faberi (SETFA); conditions: Setaria faberi, post-emergence, 312 h, evaluated after 13 days, 100=total damage to plant, 0=no damage to plant, read-out: Control of weed species after post-emergence application, SETFA; for pest or weed control at 1000 g/ha: Application Rate 1000 g/Ha
How it was run: as §1

[5] = test system: Euphorbia heterophylla (EPHHL); conditions: Euphorbia heterophylla, post-emergence, 312 h, evaluated after 13 days, 100=total damage to plant, 0=no damage to plant, read-out: Control of weed species after post-emergence application, EPHHL; for pest or weed control at 1000 g/ha: Application Rate 1000 g/Ha
How it was run: as §1

[6] = test system: Amaranthus palmeri (AMAPA); conditions: Amaranthus palmeri, post-emergence, 312 h, evaluated after 13 days, 100=total damage to plant, 0=no damage to plant, read-out: Control of weed species after post-emergence application, AMAPA; for pest or weed control at 1000 g/ha: Application Rate 1000 g/Ha
How it was run: as §1

[7] = test system: Echinochloa crus-galli (ECHCG); conditions: Echinochloa crus-galli, post-emergence, 312 h, evaluated after 13 days, 100=total damage to plant, 0=no damage to plant, read-out: Control of weed species after post-emergence application, ECHCG; for pest or weed control at 1000 g/ha: Application Rate 1000 g/Ha
How it was run: as §1

[8] = test system: Digitaria sanguinalis (DIGSA); conditions: Digitaria sanguinalis, post-emergence, 312 h, evaluated after 13 days, 100=total damage to plant, 0=no damage to plant, read-out: Control of weed species after post-emergence application, DIGSA; for pest or weed control at 1000 g/ha: Application Rate 1000 g/Ha
How it was run: as §1

[9] = test system: Ipomoea hederacea (IPOHE); conditions: Ipomoea hederacea, post-emergence, 312 h, evaluated after 13 days, 100=total damage to plant, 0=no damage to plant, read-out: Control of weed species after post-emergence application, IPOHE; for pest or weed control at 1000 g/ha: Application Rate 1000 g/Ha
How it was run: as §1

| Structure (SMILES) | pest or weed control at 1000 g/ha [1] [%] | pest or weed control at 1000 g/ha [2] [%] | pest or weed control at 1000 g/ha [3] [%] | pest or weed control at 1000 g/ha [4] [%] | pest or weed control at 1000 g/ha [5] [%] | pest or weed control at 1000 g/ha [6] [%] | pest or weed control at 1000 g/ha [7] [%] | pest or weed control at 1000 g/ha [8] [%] | pest or weed control at 1000 g/ha [9] [%] | pest or weed control at 500 g/ha ([1]; Application Rate 500 g/Ha) [%] | pest or weed control at 500 g/ha ([2]; Application Rate 500 g/Ha) [%] | pest or weed control at 500 g/ha ([3]; Application Rate 500 g/Ha) [%] | pest or weed control at 500 g/ha ([4]; Application Rate 500 g/Ha) [%] | pest or weed control at 500 g/ha ([5]; Application Rate 500 g/Ha) [%] | pest or weed control at 500 g/ha ([6]; Application Rate 500 g/Ha) [%] | pest or weed control at 500 g/ha ([7]; Application Rate 500 g/Ha) [%] | pest or weed control at 500 g/ha ([8]; Application Rate 500 g/Ha) [%] | pest or weed control at 500 g/ha ([9]; Application Rate 500 g/Ha) [%] |
| --- | --- | --- | --- | --- | --- | --- | --- | --- | --- | --- | --- | --- | --- | --- | --- | --- | --- | --- |
| C[C@@H](NC(=O)c1c[n+](C)nc2ccccc12)C(=O)OC(C)(C)C [Compound A8, tert-butyl (2R)-2-[(2-methylcinnolin-2-ium-4-carbonyl)amino]propanoate iodide] | 30 | 10 | 20 | 10 | 30 | 20 | 20 | 20 | 10 |  |  |  |  |  |  |  |  |  |
| CCOP(=O)([O-])c1c[n+](C(C)C)nc2ccccc12 [Compound A77] |  |  |  |  |  |  |  |  |  | 90 | 100 | 30 | 90 | 80 | 100 | 50 | 90 | 90 |
| CCCP(=O)([O-])c1c[n+](C)nc2ccccc12 [Compound A49] | 90 | 100 | 30 | 90 | 100 | 100 | 70 | 100 | 90 |  |  |  |  |  |  |  |  |  |
| C[n+]1cc(C(=O)Nc2nncs2)c2ccccc2n1 [Compound A26] | 40 | 20 | 10 | 10 | 20 | 20 | 20 | 0 | 30 |  |  |  |  |  |  |  |  |  |
| Cn1ncnc1NC(=O)c1c[n+](C)nc2ccccc12 [Compound A25, 2-methyl-N-(2-methyl-1,2,4-triazol-3-yl)cinnolin-2-ium-4-carboxamide iodide] | 50 | 10 | 10 | 20 | 20 | 50 | 10 | 10 | 30 |  |  |  |  |  |  |  |  |  |
| Cc1c(C(=O)[O-])c2ccccc2n[n+]1C [Compound A61, 2,3-dimethylcinnolin-2-ium-4-carboxylate] | 100 | 90 | 10 | 40 | 70 | 100 | 50 | 70 | 100 |  |  |  |  |  |  |  |  |  |
| C[n+]1cc(C(=O)[N-]S(=O)(=O)c2ccc(F)cc2)c2ccccc2n1 [Compound A38] | 50 | 90 | 0 | 40 | 60 | 60 | 20 | 30 | 20 |  |  |  |  |  |  |  |  |  |
| CCCCCCCC[n+]1cc(C(=O)[N-]S(C)(=O)=O)c2ccccc2n1 [Compound A40] | 70 | 10 | 20 | 40 | 30 | 90 | 20 | 20 | 10 |  |  |  |  |  |  |  |  |  |
| CCOP(=O)(O)c1c[n+](CCO)nc2ccccc12 [Compound A71] | 90 | 90 | 40 | 100 | 100 | 100 | 30 | 90 | 80 |  |  |  |  |  |  |  |  |  |
| C[n+]1cc(SCC(=O)O)c2ccccc2n1 [Compound A57, 2-(2-methylcinnolin-2-ium-4-yl)sulfanylacetic acid chloride] | 40 | 40 | 10 | 30 | 20 | 40 | 10 | 30 | 10 |  |  |  |  |  |  |  |  |  |
| CCCS(=O)(=O)[N-]C(=O)c1c[n+](C)nc2ccccc12 [Compound A33] | 40 | 70 | 40 | 40 | 80 | 40 | 20 | 80 | 60 |  |  |  |  |  |  |  |  |  |
| O=P(O)(O)CCCc1c[n+](CCCP(=O)(O)O)nc2ccccc12 [Compound A82, 3-[2-(3-phosphonopropyl)cinnolin-2-ium-4-yl]propylphosphonic acid chloride] | 0 | 10 | 10 | 0 | 20 | 30 | 20 | 10 | 10 |  |  |  |  |  |  |  |  |  |
| CS(=O)(=O)[N-]C(=O)c1c[n+](CCO)nc2ccccc12 [Compound A21] | 70 | 80 | 60 | 90 | 80 | 90 | 50 | 70 | 80 |  |  |  |  |  |  |  |  |  |
| C[n+]1cc(C(=O)[N-]S(=O)(=O)C(F)(F)F)c2ccccc2n1 [Compound A44] | 40 | 0 | 0 | 20 | 30 | 80 | 20 | 0 | 20 |  |  |  |  |  |  |  |  |  |
| CN(C)S(=O)(=O)[N-]C(=O)c1c[n+](C)nc2ccccc12 [Compound A11] | 60 | 30 | 20 | 50 | 70 | 40 | 50 | 40 | 60 |  |  |  |  |  |  |  |  |  |

Reference: patent US20220132847A1, “CINNOLINIUM COMPOUNDS FOR USE IN A METHOD OF CONTROLLING UNWANTED PLANT GROWTH” (SYNGENTA CROP PROTECTION AG, priority 2019, published 2022)
